The values below are quoted from earlier work in patent publication US20070173464A1, “Oral ribavirin pharmaceutical compositions” (Flamel Technologies, priority 2005, published 2007).

The structures appear in SMILES notation. Values after ≈ are worked out from the molar mass of the structure shown.

The subject of one series is Hepatitis C Virus (HC). The settings on record: up to 1200 mg per day, typically 48 weeks, in conjunction with interferon or long acting pegylated interferon; genotype I patients.

Regarding `NC(=O)c1ncn([C@@H]2O[C@H](CO)[C@@H](O)[C@H]2O)n1` [Ribavirin, 1-beta-D-ribofuranosyl-1,2,4-thiazole-3-carboxamide], the water solubility was 140 g/L (≈ 573 mM). In addition, the sustained virologic response in the series on Hepatitis C Virus (HC) is 30 to 55 % of genotype I patients.
